How the values were obtained:
RBL-2H3 cells = test: inhibition of β-hexosaminidase release in IgE/DNP-stimulated RBL-2H3 mastocyte cells; assay type: cell-based; conditions: stimulated RBL-2H3 cells, culture medium; for INHIBITION OF β-HEXOSAMINIDASE RELEASE (% on test): 10 μM
From the text: More specifically, a RBL-2H3 mastocyte cell line was used to express high-affinity receptors for the IgE immunoglobulins. The interaction of the antigens with the IgE molecules present on the cell surface stimulates secretion by said cells of the pro-inflammatory contents of their intracytoplasmic granules, amongst which significant quantities of: histamine, leukotrienes, prostaglandins and TNF-alfa. The RBL-2H3 therefore represent an excellent cell module for the study of the mechanisms of exocytosis and release of the inflammatory mediators and of the relative modulation, as the case may be. In particular, measurement of the activity by the β-hexosaminidase enzyme was performed, the release of which correlates positively with the secretion of very strong pro-inflammatory mediators such as histamine and TNF-alfa. As already specified, a RBL-2H3 mastocyte cell line was used to express high-affinity receptors for the IgE immunoglobulins, whilst the assessment of cell vitality was recorded by way of the MTT method. The RBL-2H3 cell culture was started with a density amounting to 20,000 cells/well (96 wells) and incubated with IgE-anti-DNP. After about one hour, the antigen (DNP) was introduced into the culture, then after another 30 minutes the culture medium was harvested. Measurement of the activity by the β-hexosaminidase enzyme was performed on the harvested […], the release of which correlated positively with the secretion of very strong pro-inflammatory mediators such as histamine and TNF-alfa. A reduction of the enzymatic activities in the culture medium signifies minor cell degranulation and thus […]. The molecules according to the patent application herein were solubilised in DMSO and both added in variable concentrations to the cell cultures 1 hour prior to the introduction of the antigen.

receptor GPR55 = receptor GPR55 (Homo sapiens, UniProt Q9Y2T6); conditions: Ryberg et al. 2007; cited from earlier work
receptor GPR55, sequence (Q9Y2T6 whole entry): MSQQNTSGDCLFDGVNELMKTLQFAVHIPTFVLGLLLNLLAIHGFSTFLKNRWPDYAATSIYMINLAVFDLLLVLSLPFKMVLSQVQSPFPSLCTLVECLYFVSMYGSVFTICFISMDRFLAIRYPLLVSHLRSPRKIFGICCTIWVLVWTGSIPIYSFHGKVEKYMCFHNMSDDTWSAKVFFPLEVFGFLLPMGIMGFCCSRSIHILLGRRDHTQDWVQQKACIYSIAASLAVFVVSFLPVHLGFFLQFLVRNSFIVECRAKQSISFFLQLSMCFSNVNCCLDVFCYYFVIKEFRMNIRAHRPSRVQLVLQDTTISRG

[1] = cited from earlier work
[2] = U.S. Pat. No. 5,990,170; 5,679,667; 5,506,224; cited from earlier work

C[C@@H]1C[C@H]2[C@@H]3CCC4=CC(=O)C=C[C@]4(C)[C@@]3(F)[C@@H](O)C[C@]2(C)[C@@]1(O)C(=O)CO [Desametazone, reference compound]
INHIBITION OF β-HEXOSAMINIDASE RELEASE (% on test) (RBL-2H3 cells): 40.2%

CCCCCCCCCCCCCCCC(=O)NCCO [Palmitoyl ethanolamide (PEA), palmitoyl ethanolamide]
affinity for GPR55 (receptor GPR55): nano-mole affinity array
inhibition at 10 µM (RBL-2H3 cells; Rattus norvegicus, read-out: INHIBITION OF β-HEXOSAMINIDASE RELEASE (% on test)): 23.6%

CCCCCCCCCCCCCCCCCC(=O)NCCO [Stearoyl ethanolamide (SEA), Stearoyl ethanolamide]
solubility in aqueous environments [1]: extremely scarce
anti-inflammatory activity relative to PEA [2]: much less active than the lower homologue PEA
INHIBITION OF β-HEXOSAMINIDASE RELEASE (% on test) (RBL-2H3 cells): 25.3%

CCCCCc1cc(O)c2c(c1)OC(C)(C)[C@@H]1CCC(C)=C[C@@H]21 [THC, delta-9-tetrahydrocannabinol, reference compound]
affinity for GPR55 (receptor GPR55): nano-mole affinity array

Reference: patent US20110046225A1, “Pharmaceutical formulation containing palmitoyl ethanolamide and stearoyl ethanolamide” (VERMONT ITALIA SRL, priority 2008, published 2011)
